Our source for the IC50 values is paper PMC7191558, “Use of BODIPY-Labeled ATP Analogues in the Development and Validation of a Fluorescence Polarization-Based Assay for Screening of Kinase Inhibitors” (ACS Omega, 2020).

For the assay, the target named is T1, Protein Kinase A catalytic subunit (PKA) (Bos taurus, UniProt P00517).
T1 construct: gene PRKACA; catalytic subunit (from bovine heart, Merck)
The assay is described as follows: fluorescence polarization competition with BODIPY FL ATP-γ-S. Format: binding. For orientation: Fluorescence polarisation rises when a labelled molecule tumbles more slowly, as on binding a larger partner.

Molecule `CC1CNCCN1S(=O)(=O)c1cccc2cnccc12` (stereo not shown) [H7] gave an IC50 of around 1.13 mM.

By IC50 is commonly meant the concentration at which inhibition is half-maximal. Lower therefore signals higher potency.
